Results on 7 compounds are retold here after US20090163452A1, “COMPOSITIONS AND METHODS FOR LOWERING SERUM CHOLESTEROL” (priority 2007, published 2009).

The subject of data set [1] is CYP3A. Particulars: in vitro; complex with the vitamin D receptor; CYP3A substrate midazolam; cited from earlier work.
A short description of data set [2]: Plasma atorvastatin and metabolite concentrations/AUC (LC-MS/MS) with and without supplemental vitamin D. The data set is classed as in vivo, human. As for the experimental part: Study protocol. A prospective crossover study was performed. […] Columbus Ohio 43216). All other prescribed medications were continued unchanged throughout the study. […] The sample cone voltage and collision energy for all analytes and internal standard were set at 30 V and 20 eV, respectively. Chromatography was performed on BDS C18 column (50×4.6 mm, 5 μm particle size, Thermo Electron Corporation, Bellefonte, Pa.). […] Twenty-five percent of flow liquid was split into the mass system. […] The organic layer then transferred to another tube and evaporated by N2 gas and reconstituted with 0.2 ml 50% CH3CN containing 0.05% acetic acid and 5 mM ammonium acetate, and 20 μl was injected onto column. Lower limit of detection was 0.313 ng/ml for atorvasatin and metabolites. […] Area under the plasma concentration vs. time curve (AUC) was calculated by trapezoidal rule.

Data set [3] relates to circulating cholesterol. In words: Example 2: atorvastatin with 1000 IU/day vitamin D2 or D3 or placebo for 12 weeks, circulating cholesterol. Format: in vivo, human. Particulars: co-administration with atorvastatin. As for the experimental part: The focus is on clinical populations including the elderly, frail, and minorities under steady-state conditions and with conditions reflecting “usual” clinical conditions with use of sparse sampling techniques and minimal impact on clinical care. […] About 90 participants are enrolled, with 30 receiving placebo, 30 receiving vitamin D2, and 30 receiving vitamin D3. Total vitamin D intake is analyzed (primarily driven by dairy food intake and supplements), and patients with major absorptive disorders (intestinal bypass surgery, feeding tubes requiring liquid diets, etc) are excluded. Other factors that could affect vitamin D absorption such as alcohol intake are evaluated.

The subject of data set [4] is cholesterol (total, LDL-cholesterol, and HDL-cholesterol). In words: Serum cholesterol concentrations (enzymatic assay) in patients on atorvastatin with and without supplemental vitamin D. The data set is classed as in vivo, human. Particulars: for Cholesterol Total: serum; for Cholesterol Total / LDL-cholesterol / HDL-cholesterol: mean ± S.D.; for LDL-cholesterol: calculated LDL. As for the experimental part: Study protocol. A prospective crossover study was performed. […] Columbus Ohio 43216). All other prescribed medications were continued unchanged throughout the study. […] Lipid concentration data. Serum samples were analyzed for cholesterol, LDL-cholesterol (calculated) and HDL-cholesterol concentrations by enzymatic assay (Quest Diagnostics, San Jose, Calif.).

A short description of data set [5]: Serum vitamin D metabolite concentrations (LCMSMS) in patients on atorvastatin, crossover with/without supplemental vitamin D. The data set is classed as in vivo, human. Particulars: vitamin D supplementation 800 IU/day for six weeks (On-D), mean ± S.D. As for the experimental part:
Study protocol. A prospective crossover study was performed. […] If subjects were taking vitamin D supplementation at recruitment, assigned study order was “On-D” after six week of standardized study dispensed vitamins followed by the “Off-D” study after six weeks of vitamin D discontinuation. […] All other prescribed medications were continued unchanged throughout the study.

The test system of data set [6] is cholesterol (total, LDL-cholesterol). Nature of the data set: Example 3: 1000 IU/day vitamin D for 12 weeks in humans not receiving atorvastatin, cholesterol. The data set is classed as in vivo, human. Particulars: one middle-aged subject. As for the experimental part: A study is performed with 1000 IU/day of either vitamin D2 or vitamin D3 or identically packaged placebo for a period of 12 weeks. Cholesterol (total, LDL-cholesterol, HDL-cholesterol) and triglycerides are evaluated before and during supplemental vitamin D or placebo. Focus is on adult humans with or without known lipid disorders that are not receiving atorvastatin.

Setting [7] is: no vitamin D supplementation (Off-D), atorvastatin.
Setting [8] is: vitamin D supplementation 800 IU/day six weeks (On-D), patients on atorvastatin.

With `C=C1/C(=C\C=C2/CCC[C@]3(C)[C@@H]([C@H](C)CCCC(C)(C)O)CC[C@@H]23)C[C@@H](O)C[C@@H]1O` [1,25-(OH)2 vitamin D], in data set [1], the “regulation of CYP3A activity” value was “increased transcription of CYP3A protein and greater metabolism of the CYP3A substrate midazolam”.
`CC(C)c1c(C(=O)Nc2ccccc2O)c(-c2ccccc2)c(-c2ccc(F)cc2)n1CCC(O)CC(O)CC(=O)O` (centres unmarked) [2-OH, 2-hydroxyatorvastatin acid]: the “ratio of hydroxy-atorvastatin acid to atorvastatin” value in data set [2] (during supplemental vitamin D) was 0.74±0.36; in data set [2] (off-D), 0.81±0.32.
`CC(C)c1c(C(=O)Nc2ccc(O)cc2)c(-c2ccccc2)c(-c2ccc(F)cc2)n1CC[C@@H](O)C[C@@H](O)CC(=O)O` [4-hydroxy-atorvastatin acid, 4-hydroxyatorvastatin acid]: in data set [2] (comparison between study periods), the “AUC/concentrations during vitamin D co-administration compared to the off-D study period” value is reported as “significantly lower”. Moreover, the “ratio of hydroxy-atorvastatin acid to atorvastatin” value was determined as 0.09±0.09 in data set [2] (during supplemental vitamin D) and 0.10±0.09 in data set [2] (off-D).
Consider `C=C1CC[C@H](O)C/C1=C/C=C1\CCC[C@]2(C)[C@@H]([C@H](C)CCCC(C)C)CC[C@@H]12` [D3, cholecalciferol], for which, in data set [3], the “circulating cholesterol compared with atorvastatin and placebo” value is listed as “additional reduction”.
As for `CC(C)c1c(C(=O)Nc2ccccc2)c(-c2ccccc2)c(-c2ccc(F)cc2)n1CC[C@@H](O)C[C@@H](O)CC(=O)O` [atorvastatin], the “Cholesterol Total” value was 169 ± 35 mg/dL in data set [4] (no vitamin D supplementation (Off-D), atorvastatin 45±33 mg/day) and 169 ± 35 mg/dL in data set [4] (no vitamin D supplementation (Off-D), atorvastatin 45±33 mg/day, listed as Atorvastatin). In addition, the LDL-cholesterol was 97 ± 28 mg/dL in data set [4] (setting [7]) and 97 ± 28 mg/dL in data set [4] (no vitamin D supplementation (Off-D), atorvastatin, listed as Atorvastatin). For the same compound, the HDL-cholesterol in data set [4] (setting [7]) was determined as 47 ± 11 mg/dL.
Regarding `C=C1CC[C@H](O)C/C1=C/C=C1\CCC[C@]2(C)[C@@H]([C@H](C)/C=C/[C@H](C)C(C)C)CC[C@@H]12` [vitamin D2, ergocalciferol], in data set [3], the “circulating cholesterol compared with atorvastatin and placebo” value is “additional reduction”.
Turning to vitamin D, in data set [5] (patients on atorvastatin), the “Vitamin D (25-OH) Total 25-hydroxy serum concentration” value is given as 29 ± 14 ng/mL. For the same compound, the “Vitamin D (active) 1,25-dihydroxy serum concentration” value in data set [5] (patients on atorvastatin) is listed as 38 ± 15 pg/mL. The “D3, 25-hydroxy serum concentration” value in data set [5] stood at 20 ± 17 ng/mL. Also, the total cholesterol in data set [6] (after about 12 weeks of 1000 IU vitamin D (single and combined forms of D2 and D3), 241 before vitamin D) stood at 201 mg/dL; in data set [6] (after about 12 weeks of 1000 IU vitamin D, 238 before vitamin D), 219 mg/dL. Moreover, the LDL-cholesterol was 112 mg/dL in data set [6] (after about 12 weeks of 1000 IU vitamin D, 125 before vitamin D); 98 mg/dL in data set [6] (after about 12 weeks of 1000 IU vitamin D, 144 before vitamin D); 83 ± 30 mg/dL in data set [4] (setting [8]). The “difference in HDL-cholesterol with vitamin D supplementation” value in data set [4] (On-D versus Off-D) is “No difference”. The “subjects with lower total cholesterol during supplemental vitamin D” value in data set [4] (On-D versus Off-D, patients on atorvastatin) was “thirteen of sixteen”. In data set [4] (after six weeks of vitamin D supplementation, co-administered with atorvastatin), the “mean difference in LDL-cholesterol” value is given as 14.4%. Besides, in data set [4] (vitamin D supplementation 800 IU/day six weeks (On-D), patients on atorvastatin 45±33 mg/day), the “Cholesterol Total” value amounted to 157 ± 37 mg/dL. The same compound had an HDL-cholesterol in data set [4] (setting [8]) of 44 ± 11 mg/dL.
